Data on twelve compounds can be found in patent publication US8992674B2, “Ink, ink cartridge and ink jet recording method” (Canon Kabushiki Kaisha, priority 2012, dated 2015).

This series can be described thus: Measurement of Δλmax (UV-Vis absorption spectra in 20.0% 1,2-hexanediol aqueous solution and in water). It counts as physicochemical. The conditions noted are these: for λmaxD: maximum absorption wavelength in 20.0% by mass aqueous solution of 1,2-hexanediol; for λmaxD / λmaxW: coloring material 0.002 to 0.005%; for λmaxW: maximum absorption wavelength in ion-exchange water; for Δλmax: λmaxD−λmaxW. The source says:
Specifically, the ink according to the present invention contains a first coloring material and a second coloring material satisfying the following conditions. […] Further, the sum of the Δλmax1 and the Δλmax2 needs to be 35.0 or less. λmax refers to a maximum absorption wavelength in the visible region (380 to 750 nm) in a UV-Vis absorption spectrum of a coloring material, and can be measured using a spectrophotometer.
In a coloring material in which an associating state and a non-associating state are concurrently present, the absorption spectrum has a plurality of maximal-absorption wavelengths in some cases. Then, respective peak shapes (heights) at the maximal-absorption wavelengths representing the associating state and the non-associating state vary depending on a liquid medium to be used in some cases. The maximum absorption wavelength in the present invention means the following. That is, even in the case where a maximum absorption wavelength in an absorption spectrum in 20.0% by mass aqueous solution of 1,2-hexanediol shifts based on an absorption spectrum in water, a peak originated from a maximum absorption wavelength in water is taken as the maximum absorption wavelength. […] In the present invention, since it is important to consider the shift of a wavelength giving a highest absorbance, a maximum absorption wavelength in 20.0% by mass aqueous solution of 1,2-hexanediol is considered to be a maximal-absorption wavelength on a larger wavelength side, which is a peak originated from a maximum absorption wavelength in water.
For each coloring material, the difference Δλmax (=λmaxD−λmaxW) between a maximum absorption wavelength (λmaxD) in a 20.0% by mass aqueous solution of 1,2-hexanediol and a maximum absorption wavelength (λmaxW) in water in UV-Vis absorption spectra was measured. λmaxD and λmaxW were measured by diluting each coloring material by using a 20.0% by mass aqueous solution of 1,2-hexanediol or ion-exchange water so that the content of the coloring material became 0.002 to 0.005%. The measurement condition is shown below. Then, the value Δλmax=λmaxD−λmaxW was determined from the measurement. Here, the unit of λmax is “nm.”
Spectrophotometer: a self-recording spectrophotometer (trade name “U-3300,” made by Hitachi, Ltd.)
Measurement cell: 1-cm quartz cell
Sampling interval: 0.1 nm
Scanning speed: 30 nm/min

`CC(C)(C)c1nn(-c2cc(C(=O)O)cc(C(=O)O)c2)c(N)c1N=Nc1nnc(SCCSc2nnc(N=Nc3c(C(C)(C)C)nn(-c4cc(C(=O)O)cc(C(=O)O)c4)c3N)s2)s1` [yellow coloring material 1]: the λmaxD is reported as 451.5 nm, the λmaxW is 427.5 nm and the Δλmax worked out at 24.0 nm.

For `COc1cc(N=Nc2cccc(S(=O)(=O)O)c2)ccc1Nc1nc(NCCS(=O)(=O)O)nc(Nc2ccc(N=Nc3cccc(S(=O)(=O)O)c3)cc2OCCCS(=O)(=O)O)n1` [yellow coloring material 4], the λmaxD is recorded as 382.0 nm, the λmaxW came out at 391.5 nm and the Δλmax is −9.5 nm.

Take `Cn1c(=O)c(C(=O)c2cccc(S(=O)(=O)O)c2)c2c3c(c(Nc4cc(Nc5nc(NCCNc6nc(Nc7cc(Nc8ccc9c%10c8C(=O)c8ccccc8-c%10c(C(=O)c8cccc(S(=O)(=O)O)c8)c(=O)n9C)c(S(=O)(=O)O)cc7S(=O)(=O)O)nc(Oc7ccc(S(=O)(=O)O)cc7)n6)nc(Oc6ccc(S(=O)(=O)O)cc6)n5)c(S(=O)(=O)O)cc4S(=O)(=O)O)ccc31)C(=O)c1ccccc1-2` [magenta coloring material 2]: the λmaxD is given as 512.0 nm, the λmaxW was 508.5 nm and the Δλmax is on record as 3.5 nm.

For the compound `Cc1ccc(S(=O)(=O)Nc2cc(S(=O)(=O)[O-])cc3cc(S(=O)(=O)[O-])c(N=Nc4cc(Cl)ccc4Oc4ccccc4)c(O)c23)cc1.[Na+].[Na+]` [C.I. Acid Red 249], the λmaxD was 520.0 nm, the λmaxW came out at 524.0 nm and the Δλmax is −4.0 nm.

The compound `CCc1cc(C)c(S(=O)(=O)O)c(CC)c1Nc1nc(N(c2nc3ccc(S(=O)(=O)O)cc3s2)c2c(CC)cc(C)c(S(=O)(=O)O)c2CC)cc(C)c1N=Nc1c(C#N)c(C(C)(C)C)nn1-c1nc2ccc(S(=O)(=O)O)cc2s1` [magenta coloring material 1] registered a λmaxD of 559.5 nm, a λmaxW of 555.0 nm and a Δλmax of 4.5 nm.

`O=C(O)c1nn(-c2ccc(S(=O)(=O)O)cc2)c(O)c1N=Nc1ccc(S(=O)(=O)O)cc1` [C.I. Acid Yellow 23] yielded a λmaxD of 430.5 nm, a λmaxW of 427.0 nm and a Δλmax of 3.5 nm.

`Cc1c(C#N)c(Nc2ccc(S(=O)(=O)O)cc2)nc(Nc2ccc(S(=O)(=O)O)cc2)c1N=Nc1sc(N=Nc2ccccc2C#N)c(-c2ccc(Nc3nc(NCCS(=O)(=O)O)nc(Nc4cc(S(=O)(=O)O)ccc4S(=O)(=O)O)n3)cc2)c1C#N` [black coloring material 1] displayed a λmaxD of 630.5 nm, a λmaxW of 605.5 nm and a Δλmax of 25.0 nm.

As for `Cc1cc(Nc2nc(NCCS(=O)(=O)O)nc(Nc3ccc(N=Nc4ccc(N=Nc5ccc(S(=O)(=O)O)cc5)cc4S(=O)(=O)O)c(C)c3)n2)ccc1N=Nc1ccc(N=Nc2ccc(S(=O)(=O)O)cc2)cc1S(=O)(=O)O` [yellow coloring material 3], the λmaxD is 408.0 nm, the λmaxW is 417.0 nm and the Δλmax was −9.0 nm.

Regarding `COc1cc(N=Nc2cccc(S(=O)(=O)O)c2)ccc1NC(=O)Nc1ccc(N=Nc2cccc(S(=O)(=O)O)c2)cc1OC` [C.I. Direct Yellow 132], the λmaxD is 411.0 nm, the λmaxW was found to be 405.5 nm and the Δλmax stood at 5.5 nm.

In the case of C.I. Direct Yellow 86, the λmaxD is listed as 399.0 nm, the λmaxW turned out to be 380.0 nm and the Δλmax turned out to be 19.0 nm.

With `Nc1cc2c(O)c(N=Nc3ccc(N=Nc4ccc(S(=O)(=O)[O-])cc4)c4ccc(S(=O)(=O)[O-])cc34)c(S(=O)(=O)[O-])cc2cc1S(=O)(=O)[O-].[Na+].[Na+].[Na+].[Na+]` [C.I. Food Black 2], the λmaxD came to 595.0 nm, the λmaxW was 585.5 nm and the Δλmax is on record as 9.5 nm.

The compound `Cc1c(C#N)c(Nc2ccc(S(=O)(=O)O)cc2)nc(Nc2ccc(S(=O)(=O)O)cc2)c1N=Nc1nc(-c2ccc3ccccc3c2)c(N=Nc2cc(S(=O)(=O)O)c3cc(S(=O)(=O)O)cc(S(=O)(=O)O)c3c2)s1` [black coloring material 4] had a λmaxD of 604.0 nm, a λmaxW of 604.0 nm and a Δλmax of 0.0 nm.
